What was measured:
Anas platyrhynchos = settings: short-term; oral; feed; mortality
Canidae = settings: chronic; duration: 1 years; oral; Dog Other; histopathology: nonneoplastic
Colinus virginianus = settings: for LD50: acute, oral, mortality

Work on `Cc1nn(C)c(F)c1C(=O)Nc1ccccc1C(C)CC(C)C` (stereo not given) [Penflufen] yielded an LD50 (Anas platyrhynchos) of over 2210 mg/kg-day, an NOAEL (Canidae) of 7.7 mg/kg-day and an NOAEL (Rattus norvegicus; acute, oral, F, clinical signs) of 50 mg/kg-day. It also gave an LD50 (Rattus norvegicus; acute, oral, mortality) of over 2000 mg/kg-day, an NOAEL (Rattus norvegicus; chronic, duration: 2 years, histopathology: nonneoplastic) of 4 mg/kg-day and an NOAEL (Rattus norvegicus; reproduction developmental, F, reproduction) of 71 mg/kg-day. It also gave an NOAEL (Rattus norvegicus; reproduction developmental, M, reproduction) of 58 mg/kg-day, an LD50 (Colinus virginianus; diet) of over 1700 mg/kg-day and an LD50 (Colinus virginianus) of over 4000 mg/kg-day. It also gave an NOEL (Colinus virginianus; reproduction developmental) of 96 mg/kg-day.

Source: EPA's ToxValDB 9.5 (doi:10.2903/j.efsa.2012.2860)
